41 compounds from patent US20250101436A1, “APTAMERS AND SMALL MOLECULE LIGANDS” (MeiraGTx UK II Limited, priority 2021, published 2025) can be followed below.

The subject of the first data set is N5-12G6 riboswitch. Nature of the data set: Firefly luciferase assay, N5-12G6 riboswitch in HEK293 cells. Particulars: 12G6 riboswitch, luciferase, HEK293, 2 μM.
Method: Transfection: 3.5×10^4 human embryonic kidney (HEK) 293 cells were plated in a 96-well flat bottom plate the day before transfection. Plasmid DNA (500 ng) was added to a tube or a 96-well U-bottom plate. Separately, TransIT-293 reagent (Mirus; 1.4 L) was added to 50 μL Optimum I media (Life Technologies) and allowed to sit for 5 minutes at room temperature (RT). Then, 50 μL of this diluted transfection reagent was added to the DNA, mixed, and incubated at RT for 20 min. Finally, 7 μL of this solution was added to a well of cells in the 96-well plate. Four hours after transfection, medium containing transfection solution was replaced by medium with either TPP or fursultiamine as aptamer ligands.
Firefly luciferase assay of cultured cells: Twenty-four hours after media change, plates were removed from the incubator, and equilibrated to RT for several minutes on a lab bench, then aspirated. Glo-lysis buffer (Promega, 100 μL, RT) was added, and the plates allowed to remain at RT for at least 5 minutes. Then, the well contents were mixed by 50 μL trituration, and 20 μL of each sample was mixed with 20 μL of bright-glo reagent (Promega) that had been diluted to 10% in glo-lysis buffer. 96 wells were spaced on an opaque white 384-well plate. Following a 5 min incubation at RT, luminescence was measured using a Tecan machine with 500 ms read time. The luciferase activity was expressed as mean arbitrary light units (ALU)±S.D., and fold induction was calculated as the quotient of the luciferase activity obtained from cells with TPP or analog compound treatment divided by the luciferase activity obtained from cells without TPP or analog compound treatment.
For the compound `Fc1cc(CNc2cncc(Cl)c2N2CCNCC2)cc2nccnc12` [compound 053, 5-chloro-N-((8-fluoroquinoxalin-6-yl)methyl)-4-(piperazin-1-yl)pyridin-3-amine], the “Fold induction 2 μM (HEK)” value turned out to be 16.8 fold.

Still in this data set, the particulars now being: Homo sapiens, HEK293, read-out: Fold induction 2 μM (HEK), 12G6 riboswitch, luciferase, HEK293, 2 μM.
As to `Clc1cc2nccnc2cc1CNc1cnccc1OC1CNC1` [compound 029, 4-(Azetidin-3-yloxy)-N-((7-chloroquinoxalin-6-yl)methyl)pyridin-3-amine], the fold induction at 2 µM was found to be 41.3.

Consider `c1cc(OC2CCNCC2)c(NCc2ccc3nccnc3c2)cn1` [compound 045, 4-(piperidin-4-yloxy)-N-(quinoxalin-6-ylmethyl)pyridin-3-amine], for which the fold induction at 2 µM worked out at 12.

As to `c1cc(N2CC3(CNC3)C2)c(NCc2ccc3nccnc3c2)cn1` [compound 046, N-(quinoxalin-6-ylmethyl)-4-(2,6-diazaspiro[3.3]heptan-2-yl)pyridin-3-amine], the fold induction at 2 µM turned out to be 1.6.

Consider `CN(C)CCOc1ccncc1NCc1ccc2nccnc2c1` [compound 047, 4-(2-(dimethylamino)ethoxy)-N-(quinoxalin-6-ylmethyl)pyridin-3-amine], for which the fold induction at 2 µM was 2.7.

With `N#Cc1ccc(N2CCNCC2)c(NCc2ccc3nccnc3c2)c1` [compound 048, 4-(piperazin-1-yl)-3-((quinoxalin-6-ylmethyl)amino)benzonitrile], the fold induction at 2 µM stood at 1.

In the case of `Clc1cc(CNc2cnccc2N2CCNCC2)cc2nccnc12` [compound 049, N-((8-chloroquinoxalin-6-yl)methyl)-4-(piperazin-1-yl)pyridin-3-amine], the fold induction at 2 µM is 5.7.

Regarding `Fc1cc2nccnc2cc1CNc1cnccc1N1CCNCC1` [compound 050, N-((7-fluoroquinoxalin-6-yl)methyl)-4-(piperazin-1-yl)pyridin-3-amine], the fold induction at 2 µM was 23.5.

In the case of `Fc1nccc(N2CCNCC2)c1NCc1ccc2nccnc2c1` [compound 051, 2-fluoro-4-(piperazin-1-yl)-N-(quinoxalin-6-ylmethyl)pyridin-3-amine], the fold induction at 2 µM worked out at 2.7.

On to `Fc1cc2nccnc2cc1CNc1cncc(Cl)c1N1CCNCC1` [compound 052, 5-chloro-N-((7-fluoroquinoxalin-6-yl)methyl)-4-(piperazin-1-yl)pyridin-3-amine], for which the fold induction at 2 µM is 18.9.

As to `Clc1cc2nccnc2cc1CNc1cncc(Cl)c1N1CCNCC1` [compound 054, 5-chloro-N-((7-chloroquinoxalin-6-yl)methyl)-4-(piperazin-1-yl)pyridin-3-amine], the fold induction at 2 µM amounted to 10.6.

For `Clc1cncc(NCc2cc(Cl)c3nccnc3c2)c1N1CCNCC1` [compound 055, 5-chloro-N-((8-chloroquinoxalin-6-yl)methyl)-4-(piperazin-1-yl)pyridin-3-amine], the fold induction at 2 µM was found to be 4.1.

With `C[C@@H]1CN(c2c(Cl)cncc2NCc2ccc3nccnc3c2)CCN1` [compound 056, (R)-5-chloro-4-(3-methylpiperazin-1-yl)-N-(quinoxalin-6-ylmethyl)pyridin-3-amine], the fold induction at 2 µM turned out to be 12.9.

For the compound `C[C@H]1CN(c2ccncc2NCc2cc3nccnc3cc2Cl)CCN1` [compound 057, (S)—N-((7-chloroquinoxalin-6-yl)methyl)-4-(3-methylpiperazin-1-yl)pyridin-3-amine], the fold induction at 2 µM was found to be 22.3.

Regarding `C[C@@H]1CN(c2ccncc2NCc2cc3nccnc3cc2Cl)CCN1` [compound 058, (R)—N-((7-chloroquinoxalin-6-yl)methyl)-4-(3-methylpiperazin-1-yl)pyridin-3-amine], the fold induction at 2 µM was 6.1.

In the case of `C[C@H]1CN(c2ccncc2NCc2cc(F)c3nccnc3c2)CCN1` [compound 059, (S)—N-((8-fluoroquinoxalin-6-yl)methyl)-4-(3-methylpiperazin-1-yl)pyridin-3-amine], the fold induction at 2 µM was 15.8.

Take `C[C@@H]1CN(c2ccncc2NCc2cc(F)c3nccnc3c2)CCN1` [compound 060, (R)—N-((8-fluoroquinoxalin-6-yl)methyl)-4-(3-methylpiperazin-1-yl)pyridin-3-amine]: the fold induction at 2 µM stood at 1.7.

For `C[C@H]1CNCCN1c1c(Cl)cncc1NCc1ccc2nccnc2c1` [compound 061, (S)-5-chloro-4-(2-methylpiperazin-1-yl)-N-(quinoxalin-6-ylmethyl)pyridin-3-amine], the fold induction at 2 µM was 6.

On to `C[C@@H]1CNCCN1c1ccncc1NCc1cc2nccnc2cc1Cl` [compound 062, (R)—N-((7-chloroquinoxalin-6-yl)methyl)-4-(2-methylpiperazin-1-yl)pyridin-3-amine], for which the fold induction at 2 µM is 8.

As for `C[C@H]1CNCCN1c1ccncc1NCc1cc2nccnc2cc1Cl` [compound 063, (S)—N-((7-chloroquinoxalin-6-yl)methyl)-4-(2-methylpiperazin-1-yl)pyridin-3-amine], the fold induction at 2 µM was 2.7.

As to `Clc1cc(CNc2cnccc2OC2CNC2)cc2nccnc12` [compound 064, 4-(azetidin-3-yloxy)-N-((8-chloroquinoxalin-6-yl)methyl)pyridin-3-amine], the fold induction at 2 µM came to 15.

As to `C[C@@H]1CNCCN1c1ccncc1NCc1cc(F)c2nccnc2c1` [compound 065, (R)—N-((8-fluoroquinoxalin-6-yl)methyl)-4-(2-methylpiperazin-1-yl)pyridin-3-amine], the fold induction at 2 µM was determined as 21.7.

For the compound `C[C@@H]1CNCCN1c1ccncc1NCc1cc(Cl)c2nccnc2c1` [compound 066, (R)—N-((8-chloroquinoxalin-6-yl)methyl)-4-(2-methylpiperazin-1-yl)pyridin-3-amine], the fold induction at 2 µM turned out to be 2.

Regarding `Fc1c(CNc2cnccc2N2CCNCC2)ccc2nccnc12` [compound 067, N-((5-fluoroquinoxalin-6-yl)methyl)-4-(piperazin-1-yl)pyridin-3-amine], the fold induction at 2 µM turned out to be 3.4.

As to `Cc1cc(CNc2cnccc2N2CCNCC2)cc2nccnc12` [compound 068, N-((8-methylquinoxalin-6-yl)methyl)-4-(piperazin-1-yl)pyridin-3-amine], the fold induction at 2 µM worked out at 4.4.

`Cc1cc2nccnc2cc1CNc1cnccc1N1CCNCC1` [compound 069, N-((7-methylquinoxalin-6-yl)methyl)-4-(piperazin-1-yl)pyridin-3-amine]: the fold induction at 2 µM worked out at 28.3.

Staying with this data set, now noted: Homo sapiens, HEK293, read-out: Fold induction 3.3 μM (HEK), 12G6 riboswitch, luciferase, HEK293, 3.3 μM.
Regarding `C[C@H]1CNCCN1c1ccncc1NCc1ccc2nccnc2c1` [compound 041, (S)-4-(2-methylpiperazin-1-yl)-N-(quinoxalin-6-ylmethyl)pyridin-3-amine], the fold induction at 3.3 µM stood at 5.

Regarding `C[C@H]1CN(c2ccncc2NCc2ccc3nccnc3c2)CCN1` [compound 042, (S)-4-(3-methylpiperazin-1-yl)-N-(quinoxalin-6-ylmethyl)pyridin-3-amine], the fold induction at 3.3 µM turned out to be 29.

As for `C[C@@H]1CN(c2ccncc2NCc2ccc3nccnc3c2)CCN1` [compound 043, (R)-4-(3-methylpiperazin-1-yl)-N-(quinoxalin-6-ylmethyl)pyridin-3-amine], the fold induction at 3.3 µM amounted to 31.

As for `c1cc(O[C@H]2CCNC2)c(NCc2ccc3nccnc3c2)cn1` [compound 044, (S)-4-(pyrrolidin-3-yloxy)-N-(quinoxalin-6-ylmethyl)pyridin-3-amine], the fold induction at 3.3 µM stood at 22.

The data set is the same for the next values; noted with them: Homo sapiens, HEK293, read-out: Fold induction 25 μM (HEK), 12G6 riboswitch, luciferase, HEK293, 25 μM.
On to `c1cc(N2CC3CC2CN3)c(NCc2ccc3nccnc3c2)cn1` (centres unmarked) [compound 030, 4-(2,5-diazabicyclo[2.2.1]heptan-2-yl)-N-(quinoxalin-6-ylmethyl)pyridin-3-amine], for which the fold induction at 25 µM was 82.9.

Regarding `c1cc(N2C3CNCC2C3)c(NCc2ccc3nccnc3c2)cn1` [compound 031, 4-(3,6-diazabicyclo[3.1.1]heptan-6-yl)-N-(quinoxalin-6-ylmethyl)pyridin-3-amine], the fold induction at 25 µM is 17.9.

Regarding `c1cc(N2CC3CNCC3C2)c(NCc2ccc3nccnc3c2)cn1` (centres unmarked) [compound 032, 4-(hexahydropyrrolo[3,4-c]pyrrol-2(1H)-yl)-N-(quinoxalin-6-ylmethyl)pyridin-3-amine], the fold induction at 25 µM came to 69.4.

On to `NC1CCN(c2ccncc2NCc2ccc3nccnc3c2)CC1` [compound 033, 4-(4-aminopiperidin-1-yl)-N-(quinoxalin-6-ylmethyl)pyridin-3-amine], for which the fold induction at 25 µM amounted to 7.8.

As for `c1cc(NC2CCNCC2)c(NCc2ccc3nccnc3c2)cn1` [compound 034, N^4-(piperidin-4-yl)-N^3-(quinoxalin-6-ylmethyl)pyridine-3,4-diamine], the fold induction at 25 µM came to 53.2.

For the compound `CN(c1ccncc1NCc1ccc2nccnc2c1)C1CCNC1` (centres unmarked) [compound 035, N^4-methyl-N^4-(pyrrolidin-3-yl)-N^3-(quinoxalin-6-ylmethyl)pyridine-3,4-diamine], the fold induction at 25 µM worked out at 86.4.

For the compound `FC(F)(F)C1CN(c2ccncc2NCc2ccc3nccnc3c2)CCN1` (centres unmarked) [compound 036, N-(quinoxalin-6-ylmethyl)-4-(3-(trifluoromethyl)piperazin-1-yl)pyridin-3-amine], the fold induction at 25 µM was 8.2.

Take `FC(F)(F)C1CNCCN1c1ccncc1NCc1ccc2nccnc2c1` (centres unmarked) [compound 037, N-(quinoxalin-6-ylmethyl)-4-(2-(trifluoromethyl)piperazin-1-yl)pyridin-3-amine]: the fold induction at 25 µM is 6.1.

Consider `O=C1CN(c2ccncc2NCc2ccc3nccnc3c2)CCN1` [compound 038, 4-(3-((quinoxalin-6-ylmethyl)amino)pyridin-4-yl)piperazin-2-one], for which the fold induction at 25 µM came to 2.9.

For the compound `c1cc(N2CCOCC2)c(NCc2ccc3nccnc3c2)cn1` [compound 039, 4-morpholino-N-(quinoxalin-6-ylmethyl)pyridin-3-amine], the fold induction at 25 µM turned out to be 6.

Consider `c1cc(NCc2ccc3nccnc3c2)c(N2CCNCC2)cn1` [compound 040, 3-(piperazin-1-yl)-N-(quinoxalin-6-ylmethyl)pyridin-4-amine], for which the fold induction at 25 µM stood at 69.
